The text below walks through data of patent US10934310B2, “Inhibitors of Bruton's tyrosine kinase and method of their use” (JANSSEN PHARMACEUTICA NV, priority 2015, dated 2021).

Bounds are passed on as bounds.

Chain of unphosphorylated-BTK kinase domain (UP-BTK), GST-tagged human BTK (389-659aa) (Q06187 389-659): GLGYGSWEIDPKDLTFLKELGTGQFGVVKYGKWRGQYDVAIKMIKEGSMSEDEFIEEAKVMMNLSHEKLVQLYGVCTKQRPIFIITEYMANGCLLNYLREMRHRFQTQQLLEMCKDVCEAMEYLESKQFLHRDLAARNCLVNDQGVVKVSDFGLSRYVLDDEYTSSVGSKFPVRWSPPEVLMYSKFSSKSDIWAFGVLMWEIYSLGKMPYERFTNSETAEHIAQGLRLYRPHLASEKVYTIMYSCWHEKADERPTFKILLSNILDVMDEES

One experiment addresses unphosphorylated-BTK kinase domain (UP-BTK), GST-tagged human BTK (389-659aa) (Homo sapiens (Human), UniProt Q06187). Briefly: BTK Kinase Lanthascreen Binding Assay. The following applies: Lanthascreen binding, 60 minutes incubation; pIC50 = negative log of the IC50 in molar. On the procedure: BTK Kinase Lanthascreen Binding Assay:
A BTK kinase lanthascreen binding assay monitors compound binding to unphosphorylated-BTK kinase domain (UP-BTK), by competing with a fluorescent labeled tracer. […] Data were analyzed using Xlfit™ version 5.3 from ID Business Solutions (Guildford), Microsoft Excel add-in. pIC50 refers to the negative log of the IC50 in molar.
In general terms: Time-resolved FRET reads energy transfer from a long-lived donor to a nearby acceptor.
In the case of `C=CC(=O)N[C@H]1CCCC[C@H]1NC(=O)c1sc2nccc3c2c1NC(=O)N3c1cnc(OC2CCCC2)cc1C` (single isomer, unassigned) [Example 341, N-((1R,2S)-2-Acrylamidocyclohexyl)-5-(*R)-(6-(cyclopentyloxy)-4-methylpyridin-3-yl)-4-oxo-4,5-dihydro-3H-1-thia-3,5,8-triazaacenaphthylene-2-carboxamide], the “BTK_I_binding pIC50” value was determined as 6.23. With `CCC(=O)N[C@H]1CCCC[C@H]1NC(=O)c1sc2nccc3c2c1NC(=O)N3c1ccc(Oc2ccccc2)nc1C` (single isomer, unassigned) [Example 343, 5-(*S)-(2-Methyl-6-phenoxypyridin-3-yl)-4-oxo-N-((1R,2S)-2-propionamidocyclohexyl)-4,5-dihydro-3H-1-thia-3,5,8-triazaacenaphthylene-2-carboxamide], the “BTK_I_binding pIC50” value stood at 6.11. As for `CC(=O)N[C@H]1CCC[C@H]1NC(=O)c1sc2nccc3c2c1NC(=O)N3c1ccc(Oc2ccccc2)nc1C` (single isomer, unassigned) [Example 345, N-((1R,2S)-2-Acetamidocyclopentyl)-5-(*S)-(2-methyl-6-phenoxypyridin-3-yl)-4-oxo-4,5-dihydro-3H-1-thia-3,5,8-triazaacenaphthylene-2-carboxamide], the “BTK_I_binding pIC50” value is 6.09.

On to `CCC(=O)N[C@H]1CCC[C@H]1NC(=O)c1sc2nccc3c2c1NC(=O)N3c1ccc(Oc2ccccc2)nc1C` (single isomer, unassigned) [Example 346, 5-(*S)-(2-Methyl-6-phenoxypyridin-3-yl)-4-oxo-N-((1R,2S)-2-propionamidocyclopentyl)-4,5-dihydro-3H-1-thia-3,5,8-triazaacenaphthylene-2-carboxamide], for which the “BTK_I_binding pIC50” value came out at 6.07. The same measure, in the same setting: to `C=CC(=O)N[C@H]1CCC[C@H]1NC(=O)c1sc2nccc3c2c1NC(=O)N3c1ccc(OC2CCOCC2)cc1C` (single isomer, unassigned) [Example 347, N-((1R,2S)-2-Acrylamidocyclopentyl)-5-(*R)-(2-methyl-4-((tetrahydro-2H-pyran-4-yl)oxy)phenyl)-4-oxo-4,5-dihydro-3H-1-thia-3,5,8-triazaacenaphthylene-2-carboxamide] belongs 6.06.

As for `Cc1cc(Oc2ccccc2)ncc1N1C(=O)Nc2c(C(=O)N[C@@H]3CC[C@H](N)C3)sc3nccc1c23` (single isomer, unassigned) [Example 355, N-((1R,3S)-3-Aminocyclopentyl)-5-(*S)-(4-methyl-6-phenoxypyridin-3-yl)-4-oxo-4,5-dihydro-3H-1-thia-3,5,8-triazaacenaphthylene-2-carboxamide], the “BTK_I_binding pIC50” value is given as 6.61. Same read-out and setting: to `CC(=O)N[C@@H]1CCC[C@H]1NC(=O)c1sc2nccc3c2c1NC(=O)N3c1ccc(Oc2ccccc2)nc1C` (single isomer, unassigned) [Example 358, N-((1R,2R)-2-Acetamidocyclopentyl)-5-(*S)-(2-methyl-6-phenoxypyridin-3-yl)-4-oxo-4,5-dihydro-3H-1-thia-3,5,8-triazaacenaphthylene-2-carboxamide] belongs 6.44; to `C=CC(=O)N[C@H]1CC[C@@H](NC(=O)c2sc3nccc4c3c2NC(=O)N4c2cnc(Oc3ccccc3)cc2C)C1` (single isomer, unassigned) [Example 359, N-((1R,3S)-3-Acrylamidocyclopentyl)-5-(*S)-(4-methyl-6-phenoxypyridin-3-yl)-4-oxo-4,5-dihydro-3H-1-thia-3,5,8-triazaacenaphthylene-2-carboxamide], 8.05. Take `CC(=O)N[C@H]1CCC[C@@H](NC(=O)c2sc3nccc4c3c2NC(=O)N4c2cnc(Oc3ccccc3)cc2C)C1` (single isomer, unassigned) [Example 360, N-((1R,3S)-3-Acetamidocyclohexyl)-5-(*S)-(4-methyl-6-phenoxypyridin-3-yl)-4-oxo-4,5-dihydro-3H-1-thia-3,5,8-triazaacenaphthylene-2-carboxamide]: the “BTK_I_binding pIC50” value is on record as 6.26. On the same count and under the same terms, the figure for `CCC(=O)N[C@H]1CC[C@@H](NC(=O)c2sc3nccc4c3c2NC(=O)N4c2cnc(Oc3ccccc3)cc2C)C1` (single isomer, unassigned) [Example 361, 5-(*S)-(4Methyl-6-phenoxypyridin-3-yl)-4-oxo-N-((1R,3S)-3-propionamidocyclopentyl)-4,5-dihydro-3H-1-thia-3,5,8-triazaacenaphthylene-2-carboxamide] is 7.94; for `C=CC(=O)N[C@H]1CCC[C@@H](NC(=O)c2sc3nccc4c3c2NC(=O)N4c2cnc(Oc3ccccc3)cc2C)C1` (single isomer, unassigned) [Example 363, N-((1R,3S)-3-Acrylamidocyclohexyl)-5-(*S)-(4-methyl-6-phenoxypyridin-3-yl)-4-oxo-4,5-dihydro-3H-1-thia-3,5,8-triazaacenaphthylene-2-carboxamide] it is 6.31; for `C=CC(=O)N[C@H]1CC[C@@H](NC(=O)c2sc3nccc4c3c2NC(=O)N4c2cnc(OCC(C)C)cc2C)C1` (single isomer, unassigned) [Example 365] it is 7.93.

For the compound `C=CC(=O)N[C@H]1CC[C@@H](NC(=O)c2sc3nccc4c3c2NC(=O)N4c2cnc(OC3CCCC3)cc2C)C1` (single isomer, unassigned) [Example 366, N-((1R,3S)-3-Acrylamidocyclopentyl)-5-(*S)-(6-(cyclopentyloxy)-4-methylpyridin-3-yl)-4-oxo-4,5-dihydro-3H-1-thia-3,5,8-triazaacenaphthylene-2-carboxamide], the “BTK_I_binding pIC50” value is listed as 8.07. Still for that read-out and setting: the figure for `C=CC(=O)N[C@H]1CCC[C@H]1NC(=O)c1sc2nccc3c2c1NC(=O)N3c1cnc(OC2CCCC2)cc1C` (single isomer, unassigned) [Example 371, N-((1R,2S)-2-Acrylamidocyclopentyl)-5-(*S)-(6-(cyclopentyloxy)-4-methylpyridin-3-yl)-4-oxo-4,5-dihydro-3H-1-thia-3,5,8-triazaacenaphthylene-2-carboxamide] is 8.23; for `C=CC(=O)N[C@H]1CCC[C@H]1NC(=O)c1sc2nccc3c2c1NC(=O)N3c1cnc(OCC(C)C)cc1C` (single isomer, unassigned) [Example 373, N-((1R,2S)-2-Acrylamidocyclopentyl)-5-(*S)-(6-isobutoxy-4-methylpyridin-3-yl)-4-oxo-4,5-dihydro-3H-1-thia-3,5,8-triazaacenaphthylene-2-carboxamide] it is 8.25; for `Cc1cc(OC2CCCC2)ncc1N1C(=O)Nc2c(C(=O)N[C@@H]3CCC[C@@H]3N)sc3nccc1c23` (single isomer, unassigned) [Example 374, N-((1R,2S)-2-Aminocyclopentyl)-5-(*S)-(6-(cyclopentyloxy)-4-methylpyridin-3-yl)-4-oxo-4,5-dihydro-3H-1-thia-3,5,8-triazaacenaphthylene-2-carboxamide] it is 6.82.

As to `Cc1cc(Oc2ccccc2)ncc1N1C(=O)Nc2c(C(=O)N[C@@H]3CCCC[C@@H]3N)sc3nccc1c23` (single isomer, unassigned) [Example 375, N-((1R,2S)-2-Aminocyclohexyl)-5-(*S)-(4-methyl-6-phenoxypyridin-3-yl)-4-oxo-4,5-dihydro-3H-1-thia-3,5,8-triazaacenaphthylene-2-carboxamide], the “BTK_I_binding pIC50” value stood at 6.92.

Staying with this experiment, now noted: read-out: BTK_I_binding pIC50 (converted).
Consider `Cc1nc(Oc2ccccc2)ccc1N1C(=O)Nc2c(C(=O)N[C@@H]3CCCC[C@H]3N)sc3nccc1c23` (single isomer, unassigned) [Example 350, N-((1R,2R)-2-Aminocyclohexyl)-5-(*S)-(2-methyl-6-phenoxypyridin-3-yl)-4-oxo-4,5-dihydro-3H-1-thia-3,5,8-triazaacenaphthylene-2-carboxamide], for which the IC50 was above 1000 nM. The same measure, in the same setting: to `C=CC(=O)N[C@H]1CCCC[C@H]1NC(=O)c1sc2nccc3c2c1NC(=O)N3c1cnc(OCC(C)C)cc1C` (single isomer, unassigned) [Example 352, N-((1R,2S)-2-Acrylamidocyclohexyl)-5-(*R)-(6-isobutoxy-4-methylpyridin-3-yl)-4-oxo-4,5-dihydro-3H-1-thia-3,5,8-triazaacenaphthylene-2-carboxamide] belongs above 1000 nM. The same measure, in the same setting: to `CCC(=O)N[C@@H]1CCC[C@H]1NC(=O)c1sc2nccc3c2c1NC(=O)N3c1ccc(Oc2ccccc2)nc1C` (single isomer, unassigned) [Example 353, 5-(*S)-(2-Methyl-6-phenoxypyridin-3-yl)-4-oxo-N-((1R,2R)-2-propionamidocyclopentyl)-4,5-dihydro-3H-1-thia-3,5,8-triazaacenaphthylene-2-carboxamide] belongs above 1000 nM.

Regarding `Cc1cc(Oc2ccccc2)ncc1N1C(=O)Nc2c(C(=O)N[C@@H]3CCC[C@H](N)C3)sc3nccc1c23` (single isomer, unassigned) [Example 356, N-((1R,3S)-3-Aminocyclohexyl)-5-(*S)-(4-methyl-6-phenoxypyridin-3-yl)-4-oxo-4,5-dihydro-3H-1-thia-3,5,8-triazaacenaphthylene-2-carboxamide], the IC50 is above 1000 nM. Take `CC(=O)N[C@@H]1CCCC[C@H]1NC(=O)c1sc2nccc3c2c1NC(=O)N3c1ccc(Oc2ccccc2)nc1C` (single isomer, unassigned) [Example 362, N-((1R,2R)-2-Acetamidocyclohexyl)-5-(*S)-(2-methyl-6-phenoxypyridin-3-yl)-4-oxo-4,5-dihydro-3H-1-thia-3,5,8-triazaacenaphthylene-2-carboxamide]: the IC50 is above 1000 nM. Still for that read-out and setting: the figure for `CCC(=O)N[C@H]1CCCC[C@H]1NC(=O)c1sc2nccc3c2c1NC(=O)N3c1ccc(Oc2ccccc2)nc1C` (single isomer, unassigned) [Example 364, 5-(*S)-(2-Methyl-6-phenoxypyridin-3-yl)-4-oxo-N-((1R,2R)-2-propionamidocyclohexyl)-4,5-dihydro-3H-1-thia-3,5,8-triazaacenaphthylene-2-carboxamide] is above 1000 nM.
